In ChEMBL document CHEMBL1201862, “PubChem BioAssay data set” (2004):
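Values below derive from 48-hour exposures of cells grown in 96-well plates, with endpoints linearly interpolated between the two concentrations bracketing the appropriate inhibition level. GI50 marks 50% less growth.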 Calls of active or inactive are those of the source. Rule as the data show it: active = GI50 up to about 1.1 µM and inactive = higher.

Experiments:
Assay in all cases: NCI-60 cell line screen, 48 h
SK-OV-3 = tested on: SK-OV-3
Malme-3M = tested on: Malme-3M
MCF7 = tested on: MCF7
MDA-N = tested on: MDA-N
MOLT-4 = tested on: MOLT-4
HCT-15 = tested on: HCT-15
RPMI-8226 = tested on: RPMI-8226
MDA-MB-435 = tested on: MDA-MB-435
786-0 = tested on: 786-0
OVCAR-4 = tested on: OVCAR-4
HCC 2998 = tested on: HCC 2998
IGROV-1 = tested on: IGROV-1
U-251 = tested on: U-251
OVCAR-8 = tested on: OVCAR-8
CCRF-CEM = tested on: CCRF-CEM
SF-539 = tested on: SF-539
COLO 205 = tested on: COLO 205
SK-MEL-5 = tested on: SK-MEL-5
K562 = tested on: K562
PC-3 = tested on: PC-3

Measured: GI50

CCc1n[nH]c(=O)n1/N=C/c1ccc(C)cc1
inactive: SK-OV-3 > 100 µM | Malme-3M > 100 µM | MCF7 > 100 µM | MDA-N > 100 µM | MOLT-4 5.2 µM | RPMI-8226 72.1 µM | MDA-MB-435 > 100 µM | 786-0 > 100 µM | OVCAR-4 58.5 µM | HCC 2998 > 100 µM | IGROV-1 91 µM | U-251 > 100 µM | OVCAR-8 > 100 µM | CCRF-CEM > 100 µM | SF-539 > 100 µM | COLO 205 > 100 µM | SK-MEL-5 > 100 µM | K562 > 100 µM
> 100 µM: HCT-15

FC(F)(F)c1cccc(-c2nc3ccccc3c3c2[C@@]2(N4CCCC4)CCCC[C@@H]32)c1
inactive: SK-OV-3 36.9 µM | Malme-3M 32.9 µM | PC-3 37 µM | MCF7 20 µM | MDA-N 32.2 µM | MOLT-4 28.1 µM | RPMI-8226 17.5 µM | MDA-MB-435 23.6 µM | 786-0 38.4 µM | OVCAR-4 35.3 µM | IGROV-1 12 µM | U-251 23.1 µM | CCRF-CEM 29.6 µM | SF-539 37.1 µM | COLO 205 15.5 µM | SK-MEL-5 15.8 µM | K562 30.8 µM

CN(C)c1ccc2oc(=O)c3ccccc3c2c1
> 100 µM: HCT-15
inactive: Malme-3M > 100 µM | PC-3 > 100 µM | MDA-N > 100 µM | MOLT-4 > 100 µM | RPMI-8226 > 100 µM | MDA-MB-435 > 100 µM | 786-0 30.5 µM | OVCAR-4 > 100 µM | HCC 2998 > 100 µM | IGROV-1 51.4 µM | U-251 25.3 µM | OVCAR-8 > 100 µM | CCRF-CEM > 100 µM | SF-539 33.1 µM | COLO 205 > 100 µM | SK-MEL-5 86.5 µM | K562 > 100 µM

N#CC(C#N)/N=N/c1ccc(-c2nc3ccccc3s2)cc1
3.59 µM: HCT-15
inactive: Malme-3M 3.15 µM | PC-3 2.8 µM | MCF7 4.53 µM | MDA-N 4.93 µM | MOLT-4 1.33 µM | RPMI-8226 1.51 µM | MDA-MB-435 5.6 µM | 786-0 8.36 µM | OVCAR-4 6.49 µM | IGROV-1 6 µM | OVCAR-8 4.37 µM | SF-539 9.33 µM | COLO 205 4.04 µM | SK-MEL-5 2.74 µM

O=C(c1cccc2cc(O)ccc12)c1cn(CCN2CCOCC2)c2ccccc12
inactive: Malme-3M 22.8 µM | PC-3 12 µM | MCF7 25.5 µM | MDA-N 25.2 µM | MOLT-4 34.7 µM | RPMI-8226 47.1 µM | 786-0 21.1 µM | IGROV-1 20.3 µM | OVCAR-8 31.6 µM | CCRF-CEM 4.06 µM | SF-539 > 100 µM | COLO 205 45.7 µM | SK-MEL-5 40 µM | K562 60.1 µM

CCOC(=O)/C(=C\c1c(C)[nH]c2ccccc12)P(=O)(OCC)OCC
> 100 µM: HCT-15
inactive: SK-OV-3 > 100 µM | Malme-3M > 100 µM | MCF7 > 100 µM | MDA-N > 100 µM | MOLT-4 > 100 µM | RPMI-8226 > 100 µM | MDA-MB-435 > 100 µM | 786-0 > 100 µM | OVCAR-4 > 100 µM | HCC 2998 > 100 µM | IGROV-1 > 100 µM | U-251 > 100 µM | OVCAR-8 > 100 µM | SF-539 > 100 µM | COLO 205 > 100 µM | SK-MEL-5 > 100 µM | K562 > 100 µM

CCCCCCCCCN1CCC(=O)C(C(=O)OC)C1 (stereo unspecified)
inactive: SK-OV-3 16.4 µM | MCF7 12.3 µM | MDA-N 16 µM | MOLT-4 13.6 µM | RPMI-8226 15.6 µM | MDA-MB-435 14.7 µM | 786-0 16.9 µM | OVCAR-4 2.29 µM | HCC 2998 19.5 µM | OVCAR-8 8.07 µM | CCRF-CEM 10.1 µM | SF-539 18.2 µM | COLO 205 15.1 µM | SK-MEL-5 14.2 µM
13.4 µM: HCT-15

OC(COC(c1ccccc1)(c1ccccc1)c1ccccc1)C(O)CC1SCCS1 (stereo unspecified)
21.8 µM: HCT-15
inactive: SK-OV-3 19 µM | Malme-3M 10 µM | PC-3 11.8 µM | MCF7 21.3 µM | MDA-N 19 µM | MOLT-4 8.91 µM | RPMI-8226 5.22 µM | MDA-MB-435 26.2 µM | 786-0 17.6 µM | IGROV-1 10.2 µM | U-251 21.8 µM | OVCAR-8 19.3 µM | CCRF-CEM 21.3 µM | SF-539 18.7 µM | COLO 205 14.7 µM | SK-MEL-5 16.7 µM | K562 13.5 µM

COC(=O)c1ccccc1C1=C([N+](=O)[O-])C(c2ccccc2)C(C#N)=C(N)O1 (stereo unspecified)
19.8 µM: HCT-15
inactive: SK-OV-3 > 100 µM | PC-3 > 100 µM | MDA-N > 100 µM | MOLT-4 35 µM | RPMI-8226 34.5 µM | MDA-MB-435 72.8 µM | 786-0 35.6 µM | HCC 2998 > 100 µM | IGROV-1 > 100 µM | U-251 > 100 µM | OVCAR-8 32.1 µM | CCRF-CEM 30.1 µM | SF-539 > 100 µM | COLO 205 50.8 µM | SK-MEL-5 > 100 µM | K562 33.7 µM

Nc1nc(Cl)cc(NCC2(CO)CC(=O)C2)n1
> 100 µM: HCT-15
inactive: SK-OV-3 > 100 µM | Malme-3M > 100 µM | PC-3 > 100 µM | MCF7 > 100 µM | MOLT-4 > 100 µM | RPMI-8226 > 100 µM | MDA-MB-435 > 100 µM | 786-0 > 100 µM | OVCAR-4 > 100 µM | HCC 2998 > 100 µM | IGROV-1 > 100 µM | U-251 > 100 µM | OVCAR-8 65.3 µM | CCRF-CEM > 100 µM | SF-539 > 100 µM | COLO 205 > 100 µM | SK-MEL-5 > 100 µM | K562 > 100 µM

C/C(=N\Nc1ccc([N+](=O)[O-])cc1[N+](=O)[O-])c1sc(-n2nc(-c3ccccc3)cc2-c2ccccc2)nc1C
active: IGROV-1 0.897 µM
38.6 µM: HCT-15
inactive: SK-OV-3 24.5 µM | Malme-3M 76.7 µM | MCF7 46.5 µM | MDA-N 46.8 µM | MOLT-4 16.9 µM | RPMI-8226 20.9 µM | MDA-MB-435 33 µM | 786-0 36.7 µM | OVCAR-4 43.9 µM | HCC 2998 32.9 µM | U-251 42.7 µM | OVCAR-8 30.5 µM | CCRF-CEM 19.5 µM | SF-539 46.8 µM | COLO 205 24.8 µM | SK-MEL-5 34.4 µM

CC1(C)[C@@H](Cn2ccc(=O)[nH]c2=O)CC[C@@]1(C)CO
> 100 µM: HCT-15
inactive: SK-OV-3 > 100 µM | PC-3 > 100 µM | MDA-N > 100 µM | MDA-MB-435 > 100 µM | 786-0 > 100 µM | OVCAR-4 > 100 µM | HCC 2998 > 100 µM | U-251 > 100 µM | CCRF-CEM > 100 µM | COLO 205 > 100 µM | SK-MEL-5 > 100 µM | K562 > 100 µM
